From patent publication US20120270905A1, “FLUORINATED 2,6-DIALKYL-3,5-DICYANO-4-(1H-INDAZOL-5-YL)-1,4-DIHYDROPYRIDINES AND METHODS OF USE THEREOF” (BAYER PHARMA AKTIENGESELLSCHAFT, priority 2009, published 2012)

What was measured:
[1] = biological target: T1, recombinant kinase domain of the human c-Met (amino acids 960-1390) (Homo sapiens, UniProt P08581); experiment: c-Met receptor tyrosine kinase homogeneous time-resolved fluorescence assay (alternative format); type: biochemical; conditions: HTRF format; ATP 10 μM, 30 min at 22° C.
T1 construct: kinase domain of the human c-Met (amino acids 960-1390); His6 (N); made in house; host or cells: insect cells (SF21)
T1 sequence (P08581 960-1390): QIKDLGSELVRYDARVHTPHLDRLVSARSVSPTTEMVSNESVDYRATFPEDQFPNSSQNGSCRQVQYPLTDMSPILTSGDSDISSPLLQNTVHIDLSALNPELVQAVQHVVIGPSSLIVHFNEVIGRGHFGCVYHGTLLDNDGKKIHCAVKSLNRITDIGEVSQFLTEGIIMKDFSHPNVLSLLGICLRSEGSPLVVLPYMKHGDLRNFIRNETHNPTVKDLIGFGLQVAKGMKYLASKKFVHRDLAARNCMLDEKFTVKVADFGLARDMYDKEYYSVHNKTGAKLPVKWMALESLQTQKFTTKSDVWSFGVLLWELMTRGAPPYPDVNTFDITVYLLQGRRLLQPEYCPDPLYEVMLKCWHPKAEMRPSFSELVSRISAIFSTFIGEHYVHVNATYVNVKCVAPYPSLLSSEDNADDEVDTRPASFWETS
From the text: c-Met Receptor Tyrosine Kinase Homogeneous Time-Resolved Fluorescence Assay (Alternative Format):
The N-terminally His6-tagged recombinant kinase domain of the human c-Met (amino acids 960-1390), expressed in insect cells (SF21) and purified by Ni-NTA affinity chromatography and consecutive size exclusion chromatography (Superdex 200), is used. Alternatively, commercially available c-Met (Millipore) can be used. As substrate for the kinase reaction, the biotinylated poly-Glu,Tyr (4:1) copolymer (#61GT0BLC, Cis Biointernational, Marcoule, France) is used.
For the assay, 50 nL of a 100-fold concentrated solution of the test compound in DMSO is pipetted into a black low-volume 384-well microtiter plate (Greiner Bio-One, Frickenhausen, Germany). […]
The resulting mixture is incubated for 1 h at 22° C. to allow the binding of the biotinylated phosphorylated peptide to the streptavidine-XLent and the PT66-Eu-chelate. Subsequently, the amount of phosphorylated substrate is evaluated by measurement of the resonance energy transfer from the PT66-Eu-chelate to the streptavidine-XLent. Therefore, the fluorescence emissions at 620 nm and 665 nm after excitation at 350 nm are measured in an HTRF reader, e.g. Rubystar (BMG Lab-technologies, Offenburg, Germany) or Viewlux (Perkin-Elmer). […]

[2] = biological target: T2, Recombinant human c-Met protein (Homo sapiens, UniProt P08581); experiment: c-Met receptor tyrosine kinase activity assay (NADH read-out); type: biochemical; conditions: c-Met 30 nM, ATP 30 μM, 100 min at 32° C.
T2 construct: purchased Invitrogen
T2 sequence (P08581 25-1390): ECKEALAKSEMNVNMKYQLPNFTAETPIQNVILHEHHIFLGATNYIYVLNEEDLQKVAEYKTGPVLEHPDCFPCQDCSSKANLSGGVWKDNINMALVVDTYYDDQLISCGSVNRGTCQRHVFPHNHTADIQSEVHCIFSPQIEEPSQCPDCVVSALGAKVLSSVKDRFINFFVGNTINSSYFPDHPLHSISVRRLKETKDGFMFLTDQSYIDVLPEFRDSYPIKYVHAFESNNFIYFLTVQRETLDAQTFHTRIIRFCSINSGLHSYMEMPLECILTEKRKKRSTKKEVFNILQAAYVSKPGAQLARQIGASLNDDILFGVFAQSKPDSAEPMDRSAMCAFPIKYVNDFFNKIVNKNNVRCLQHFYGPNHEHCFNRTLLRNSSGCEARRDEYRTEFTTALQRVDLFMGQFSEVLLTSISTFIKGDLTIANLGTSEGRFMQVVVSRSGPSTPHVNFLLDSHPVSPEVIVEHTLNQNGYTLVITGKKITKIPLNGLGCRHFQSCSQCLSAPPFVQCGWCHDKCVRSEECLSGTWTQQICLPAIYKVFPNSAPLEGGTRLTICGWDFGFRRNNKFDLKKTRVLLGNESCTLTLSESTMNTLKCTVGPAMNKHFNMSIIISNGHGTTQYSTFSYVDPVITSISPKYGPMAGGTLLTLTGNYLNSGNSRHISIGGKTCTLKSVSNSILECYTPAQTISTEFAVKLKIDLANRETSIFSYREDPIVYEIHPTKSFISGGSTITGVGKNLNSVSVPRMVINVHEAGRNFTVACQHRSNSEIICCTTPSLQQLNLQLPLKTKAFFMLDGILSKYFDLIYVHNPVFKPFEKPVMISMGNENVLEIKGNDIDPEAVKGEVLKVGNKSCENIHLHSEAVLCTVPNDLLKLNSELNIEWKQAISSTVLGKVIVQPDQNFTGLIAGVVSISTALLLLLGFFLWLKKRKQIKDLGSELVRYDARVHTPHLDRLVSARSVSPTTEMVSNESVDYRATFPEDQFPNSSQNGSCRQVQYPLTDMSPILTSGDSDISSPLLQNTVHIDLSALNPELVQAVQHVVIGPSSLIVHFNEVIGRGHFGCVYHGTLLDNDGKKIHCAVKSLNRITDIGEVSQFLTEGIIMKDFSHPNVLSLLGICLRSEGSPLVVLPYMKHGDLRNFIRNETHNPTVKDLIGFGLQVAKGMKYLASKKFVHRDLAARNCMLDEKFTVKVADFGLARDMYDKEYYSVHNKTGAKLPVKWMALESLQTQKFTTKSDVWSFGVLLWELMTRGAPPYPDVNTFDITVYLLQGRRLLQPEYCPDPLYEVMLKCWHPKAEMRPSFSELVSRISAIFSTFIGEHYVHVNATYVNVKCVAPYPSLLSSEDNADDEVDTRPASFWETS
Description: c-Met Receptor Tyrosine Kinase Activity Assay (NADH Read-Out):
Recombinant human c-Met protein (Invitrogen, Carlsbad, Calif., USA) is used. As substrate for the kinase reaction the peptide KKKSPGEYVNIEFG (JPT, Germany) is used. For the assay, 1 μL of a 51-fold concentrated solution of the test compound in DMSO is pipetted into a white 384-well microtiter plate (Greiner Bio-One, Frickenhausen, Germany). 25 μL of a solution of c-Met (final concentration 30 nM) and pyruvate kinase/lactate dehydrogenase (Roche Diagnostics, Mannheim, Germany; final concentration 8 mg/L) in assay buffer [3-(N-morpholino)propanesulfonic acid (MOPS), 50 mM, pH 7; MgCl2, 10 mM; bovine serum albumin (BSA), 0.01%; Triton X 100, 0.01%; DTT, 2 mM] are added, and the mixture is incubated for 5 min at room temperature. Then, the kinase reaction is started by the addition of 25 μL of a solution of adenosine triphosphate (ATP, final concentration 30 μM), substrate (final concentration 100 μM), nicotinamide adenine dinucleotide (NADH, final concentration 50 μM) and dithiothreitol (DTT, final concentration 2 mM) in assay buffer, and the resulting mixture is incubated for a reaction time of 100 min at 32° C.
Subsequently, the amount of phosphorylated substrate is evaluated by measurement of the decrease of NADH fluorescence. Therefore, the fluorescence emissions at 465 nm after excitation at 340 nm is measured in a fluorescence reader, e.g. Tecan Ultra (Tecan, Männedorf, Switzerland). The data are normalised (enzyme reaction without inhibitor=0% inhibition; all other assay components but no enzyme=100% inhibition).
Some representative IC50 values are listed in Table 1 below together with corresponding data for a structurally related, non-fluorinated compound from prior art (cf. WO 2008/071451): […]

[3] = Caco-2 permeability assay; type: in vitro ADME; conditions: human, apical to basolateral, test concentration 2 μM, 2 h at 37° C., read-out: Caco-2 permeability PappA-B
From the text: Caco-2 Permeability Assay:
The in vitro permeation of a test compound across a Caco-2 cell monolayer is a well-established assay system to predict the permeability from the gastro-intestinal tract [cf. P. Artursson and J. Karlsson: Correlation between oral drug absorption in humans and apparent drug permeability coefficients in human intestinal epithelial (Caco-2) cells, Biochem. Biophys. 175 (3), 880-885 (1991)]. The permeability of the compounds of the present invention in such Caco-2 cells was deter-mined as described below:
Human Caco-2 cells (ACC No. 169, DSMZ, German Collection of Microorganisms and Cell Cultures, Braunschweig, Germany) are seeded on 24-well insert plates and are allowed to grow for 14-16 days. For permeability studies, the test compounds are dissolved in DMSO and diluted to the final test concentration of 2 μM with transport buffer [Hanks' Buffered Salt Solution, Gibco/Invitrogen, further supplemented with glucose (final concentration 19.9 mM) and HEPES (final concentration 9.8 mM)]. For determination of the apical to basolateral permeability (PappA-B), the test compound solution is added to the apical side of the cell monolayer and transport buffer to the basolateral side of the monolayer; for determination of the basolateral to apical permeability (PappB-A), the test compound solution is added to the basolateral side of the cell monolayer and transport buffer to the apical side of the monolayer. Samples are taken from the donor compartment at the beginning of the experiment to confirm mass balance. After an incubation of 2 h at 37° C., samples are taken from both compartments. Samples are analyzed by LC-MS/MS, and the apparent permeability coefficients are calculated. Lucifer Yellow permeability is assayed for each cell monolayer to ensure cell monolayer integrity, and the permeability of Atenolol (low permeability marker) and Sulfasalazine (marker for active excretion) is determined for each batch as quality control. […]

Compound	IC50 [1] [nM]	IC50 [2] [nM]	Papp A→B at 2 h, 2 μM [3] [×10⁻⁶ cm/s]
Cc1n[nH]c2cc(F)c(C3C(C#N)=C(CCC(F)(F)F)NC(C(F)F)=C3C#N)cc12 (racemic) [Example 10, 2-(Difluoromethyl)-4-(6-fluoro-3-methyl-1H-indazol-5-yl)-6-(3,3,3-trifluoropropyl)-1,4-dihydropyridine-3,5-dicarbonitrile]	11	26	–
CCC1=C(C#N)C(c2ccc3[nH]nc(C)c3c2)C(C#N)=C(C(F)(F)F)N1 (centres unmarked) [Example 4, 2-Ethyl-4-(3-methyl-1H-indazol-5-yl)-6-(trifluoromethyl)-1,4-dihydropyridine-3,5-dicarbonitrile]	11	–	–
N#CC1=C(CCC(F)(F)F)NC(C(F)(F)F)=C(C#N)C1c1ccc2[nH]ncc2c1 (centres unmarked) [Example 16, 4-(1H-Indazol-5-yl)-2-(trifluoromethyl)-6-(3,3,3-trifluoropropyl)-1,4-dihydro-pyridine-3,5-dicarbonitrile]	–	29	–
Cc1n[nH]c2cc(F)c(C3C(C#N)=C(CCC(F)(F)F)NC(C(F)(F)F)=C3C#N)cc12 (racemic) [Example 7, 4-(6-Fluoro-3-methyl-1H-indazol-5-yl)-2-(trifluoromethyl)-6-(3,3,3-trifluoropropyl)-1,4-dihydro-pyridine-3,5-dicarbonitrile]	–	52	20.4

More lines, in order of falling IC50 [2], values ahead:

IC50 [1] [nM]	IC50 [2] [nM]	Papp A→B at 2 h, 2 μM [3] [×10⁻⁶ cm/s]	Compound
–	17	–	Cc1n[nH]c2ccc(C3C(C#N)=C(CCC(F)(F)F)NC(C(F)F)=C3C#N)cc12 (centres unmarked) [Example 14, 2-(Difluoromethyl)-4-(3-methyl-1H-indazol-5-yl)-6-(3,3,3-trifluoropropyl)-1,4-dihydropyridine-3,5-dicarbonitrile]
–	16	21.7	Cc1n[nH]c2ccc(C3C(C#N)=C(CCC(C)C)NC(C(F)(F)F)=C3C#N)cc12 (racemic) [Example 1, 2-(3-Methylbutyl)-4-(3-methyl-1H-indazol-5-yl)-6-(trifluoromethyl)-1,4-dihydropyridine-3,5-dicarbonitrile]
–	9	25.9	CCC1=C(C#N)C(c2ccc3[nH]nc(C)c3c2)C(C#N)=C(C(F)F)N1 (centres unmarked) [Example 13, 2-(Difluoromethyl)-6-ethyl-4-(3-methyl-1H-indazol-5-yl)-1,4-dihydropyridine-3,5-dicarbonitrile]
